Point of comparison: *Oc1ccc(C(C)(CC)c2ccc(OC(*)=O)cc2)cc1 (repeat unit), glass transition temperature 136.00 °C. Against it:
- *CCN(CCOC(=O)Nc1ccc(C)c(NC(=O)O*)c1)c1ccc(/N=N/c2ccc(-c3nc4ccc([N+](=O)[O-])cc4n3CC)cc2)cc1 (repeat unit) — higher, 158.00 °C
- *CC(OC(=O)Oc1ccc(C(=O)OC)cc1)C(COC(=O)O*)OC(=O)Oc1ccc(C(=O)OC)cc1 (repeat unit) — lower, 90.90 °C
- *OC(=O)C(C)NC(=O)CCCCCCCCCCC(=O)NC(C)C(=O)OC1COC2C(*)COC12 (repeat unit) — lower, 28.00 °C
- *CC(*)(C)C(=O)OCCCCCCOc1ccc(C(=O)Oc2ccc(C)cc2)cc1 (repeat unit) — lower, 45.00 °C
- *C(=O)c1ccc2c(c1)C(=O)N(C1CCC(CC3CCC(N4C(=O)c5ccc(*)cc5C4=O)CC3)CC1)C2=O (repeat unit) — higher, 254.00 °C
- *CC(C)(CO*)COCC(F)(F)F (repeat unit) — lower, -41.00 °C
- *c1ccc(Cc2ccc(N3C(=O)C4CCC5C(=O)N(*)C(=O)C5C4C3=O)cc2)cc1 (repeat unit) — higher, 341.00 °C
- *OC(C)COCC(C)OC(=O)c1ccccc1C(*)=O (repeat unit) — lower, 25.00 °C
- *CCCCCCOC(=O)OCCOC(=O)OCCCCCCOc1ccc(C(=O)c2ccc(O*)cc2)cc1 (repeat unit) — lower, 15.00 °C
- *COC1OC(*)C(O)C(O)C1O (repeat unit) — higher, 200.00 °C
- *C(=O)Nc1ccc(C2(c3ccc(N4C(=O)c5ccc(*)cc5C4=O)cc3)CCC(C)CC2)cc1 (repeat unit) — higher, 322.00 °C
- *CCCCCCCCCCCCCCNC(=O)NCCCCCCCCCCNC(=O)N* (repeat unit) — lower, 40.00 °C
- *CC(O)CN(CC(O)COc1ccc(C(C)(C)c2ccc(O*)cc2)cc1)c1ccc(C#N)cc1 (repeat unit) — lower, 100.00 °C
- *CC(*)(C)C(=O)OCCCCCCOc1ccc(C(=O)Oc2ccc(/N=N/c3ccc(I)cc3)c3ccccc23)cc1 (repeat unit) — lower, 40.00 °C
- *CCOCCOCCOCCOC(=O)/C=C/C(=O)NCCCCCCNC(=O)/C=C/C(=O)O* (repeat unit) — lower, 52.00 °C
- *c1ccc2c(c1)C(=O)N(c1ccc(Oc3ccc(N4C(=O)c5ccc(C(*)(C(F)(F)F)C(F)(F)F)cc5C4=O)cc3)c(OCCN(CC)c3ccc(/N=N/c4ccc([N+](=O)[O-])cc4)cc3)c1)C2=O (repeat unit) — higher, 202.00 °C
- *CCCCCCC(Cl)C(*)Cl (repeat unit) — lower, -18.00 °C
- *Nc1ccc(*)cc1OCCCCCCCCCCCCCCCC (repeat unit) — lower, 92.00 °C
- *CCCCCCCCCCNC(=O)NCc1ccc(CNC(=O)N*)cc1 (repeat unit) — lower, 55.00 °C
- *C[Si](*)(C)CCCn1c2ccccc2c2ccccc21 (repeat unit) — lower, 71.20 °C
- *c1ccc(Oc2ccc(C(C)(C)c3ccccc3)cc2)c(-n2c(=O)c3cc4c(=O)n(*)c(=O)c4cc3c2=O)c1 (repeat unit) — higher, 340.00 °C
- *CC(*)c1ccccc1COC (repeat unit) — lower, 89.00 °C
- *c1ccc(Sc2cc3c(cc2Sc2ccc(N4C(=O)C5C6C=CC(C7C(=O)N(*)C(=O)C67)C5C4=O)cc2)C(=O)N(CCN(C)C)C3=O)cc1 (repeat unit) — higher, 310.00 °C
- *CCCOCCCCOCCCN1C(=O)c2ccc(C(=O)Oc3ccc(OC(=O)c4ccc5c(c4)C(=O)N(*)C5=O)c(-c4ccccc4)c3)cc2C1=O (repeat unit) — lower, 71.00 °C
- *C/C=C/CS(*)(=O)=O (repeat unit) — lower, 86.00 °C
- *c1ccc2c(c1)C(=O)N(c1ccc(OC(CCCCCC)COc3ccc(N4C(=O)c5ccc(C(*)(C(F)(F)F)C(F)(F)F)cc5C4=O)cc3)cc1)C2=O (repeat unit) — higher, 182.00 °C
- *CN1C(=O)c2ccc(C(c3ccc4c(c3)C(=O)N(Cc3nnc(-c5ccc(Oc6ccc(-c7nnc(*)o7)cc6)cc5)o3)C4=O)(C(F)(F)F)C(F)(F)F)cc2C1=O (repeat unit) — higher, 210.00 °C
- *O[Si](C)(C)c1ccc2cc3cc([Si](*)(C)C)ccc3cc2c1 (repeat unit) — lower, 118.00 °C
- *CCC[Si](C)(C)O[Si](C)(C)CCCN1C(=O)c2ccc(-c3ccc4c(c3)C(=O)N(*)C4=O)cc2C1=O (repeat unit) — lower, 75.00 °C
- */C=C/c1ccc(/C=C/[Si](C)(C)c2ccc([Si](*)(C)C)cc2)cc1 (repeat unit) — lower, 63.00 °C
- */C=C(\C#N)C(=O)OCCCCCCOC(=O)/C(C#N)=C/c1ccc2c(c1)c1cc(*)ccc1n2CCCCCCCCCCCn1c2ccccc2c2ccccc21 (repeat unit) — lower, 63.00 °C
- *CCCCCCN(C)C(=O)CCC(=O)N(*)C (repeat unit) — lower, 7.50 °C
- *c1ccc(Cc2ccc(-c3nc(-c4cccc(-c5nnc(-c6ccccc6)c(*)n5)n4)nnc3-c3ccccc3)cc2)cc1 (repeat unit) — higher, 205.00 °C
- *C(=O)Nc1ccc(-c2ccc(NC(=O)c3ccc4c(c3)C(=O)N(c3ccc(Oc5cccc6c(N7C(=O)c8ccc(*)cc8C7=O)cccc56)cc3)C4=O)c(OC)c2)cc1OC (repeat unit) — higher, 304.00 °C
- *CC(*)OCC(CC)CCCC (repeat unit) — lower, -66.00 °C
- *CCCCCCNC(=O)CCc1ccc(CCC(=O)N*)cc1 (repeat unit) — lower, 85.00 °C
- *CC#CC#CCOc1ccc(C(=O)OCCN(CCOC(=O)c2ccc(O*)cc2)c2ccc(/N=N/c3ccc(/N=N/c4cc(C)c([N+](=O)[O-])c(C)c4)cc3)cc2)cc1 (repeat unit) — lower, 115.00 °C
- *c1ccc(Nc2cccc(Nc3ccc(S(*)(=O)=O)cc3)c2)cc1 (repeat unit) — higher, 145.00 °C
- *c1ccc(-c2cc(C(C)(C)C)c(Oc3ccc(-n4c(=O)c5cc6c(=O)n(*)c(=O)c6cc5c4=O)cc3C(F)(F)F)c(C(C)(C)C)c2)cc1 (repeat unit) — higher, 420.00 °C
- *c1ccc2c(c1)C(=O)N(c1cc(C(=O)Nc3cccc4c(NC(=O)c5ccc(C)c(N6C(=O)c7ccc(C(*)(C(F)(F)F)C(F)(F)F)cc7C6=O)c5)cccc34)ccc1C)C2=O (repeat unit) — higher, 250.00 °C
- *Oc1ccc(CC(NC(=O)CCc2ccc(OC(=O)CCCC(*)=O)cc2)C(=O)OCCCCCC)cc1 (repeat unit) — lower, 43.00 °C
- *CCC(=O)NCc1c(C)c(C)c(CNC(=O)CCO*)c(C)c1C (repeat unit) — higher, 191.00 °C
- *OC(=O)C(C)NC(=O)CCCCCCCC(=O)NC(C)C(=O)OC1COC2C(*)COC12 (repeat unit) — lower, 46.00 °C
- *C(=O)c1ccc(Oc2ccc(Oc3ccc(C(=O)c4ccc5c(c4)C(=O)N(c4ccc(N6C(=O)c7ccc(*)cc7C6=O)cc4)C5=O)cc3)cc2)cc1 (repeat unit) — higher, 236.00 °C
- *CCN(CCOC(=O)c1cc(OCCN(C)c2ccc(S(=O)(=O)C(F)(F)C(F)(F)C(F)(F)C(F)(F)C(F)(F)C(F)(F)C(F)(F)C(F)(F)F)cc2)cc(C(=O)O*)c1)c1ccc(S(=O)(=O)C(F)(F)C(F)(F)C(F)(F)C(F)(F)C(F)(F)C(F)(F)C(F)(F)C(F)(F)F)cc1 (repeat unit) — lower, 83.00 °C
- *CC(CSCC)O* (repeat unit) — lower, -57.00 °C
- *c1cc(OCCCCCCCC)cc(N2C(=O)c3ccc(Oc4ccc5c(c4)C(=O)N(*)C5=O)cc3C2=O)c1 (repeat unit) — higher, 185.00 °C
- *Oc1ccc(CC(NC(=O)Cc2ccc(OC(=O)CCCC(*)=O)cc2)C(=O)OCCCCCCCC)cc1 (repeat unit) — lower, 38.00 °C
- *Nc1cc(NC(=O)c2ccc(C(*)=O)cc2)cc(C(=O)Oc2ccc(-c3ccccc3)cc2)c1 (repeat unit) — higher, 178.00 °C
- *CC(*)(C)C(=O)OCCCCCn1c2ccccc2c2ccccc21 (repeat unit) — lower, 91.00 °C
- *C(=O)Oc1c(C)cc(C(C)(C)c2cc(C)c(OC(=O)c3ccc4c(c3)C(=O)N(c3ccc(-c5ccc(N6C(=O)c7ccc(*)cc7C6=O)cc5C)c(C)c3)C4=O)c(C)c2)cc1C (repeat unit) — higher, 182.00 °C
- *O[Si](*)(C)CCCCCCCCCCC(=O)Oc1ccc(C(=O)Oc2ccc(OC(=O)CCCCC(=O)OC3CC(C)CCC3C(C)C)cc2)cc1 (repeat unit) — lower, 20.70 °C
- *CCCC(C)(C)CCCNC(=O)c1ccc(C(=O)N*)cc1 (repeat unit) — higher, 152.00 °C
- *CCN(CCOC(=O)c1ccc(C(=O)O*)c(OCCC)c1)c1ccc(-c2nc3ccc([N+](=O)[O-])cc3o2)cc1 (repeat unit) — lower, 119.00 °C
- *CCCC(=O)N* (repeat unit) — lower, 62.80 °C
- *c1ccc(C(=O)Nc2ccc(Oc3ccc(NC(=O)c4ccc(-n5c(=O)c6cc7c(=O)n(*)c(=O)c7cc6c5=O)cc4)cc3)cc2)cc1 (repeat unit) — higher, 360.00 °C
- *Oc1c(C)cc(-c2cc(C)c(Oc3ccc(C(=O)c4ccc(*)cc4)cc3)c(C)c2)cc1C (repeat unit) — higher, 246.63 °C
- *Oc1ccc(Oc2ccc(C(=O)Nc3ccc(Oc4ccc(NC(=O)c5ccc(*)cc5)cc4)cc3)cc2)cc1-c1ccccc1 (repeat unit) — higher, 219.00 °C
- *CC(*)C(=O)Oc1ccc(C(=O)Oc2ccc(OC(=O)c3ccc(OCCCC)cc3)cc2)cc1 (repeat unit) — lower, 47.00 °C
- *CC(*)c1cc(Br)ccc1OCCC (repeat unit) — lower, 54.00 °C
- *CC(*)c1ccc(-c2ccc3c(c2)C(CCCCCC)(CCCCCC)c2ccccc2-3)cc1 (repeat unit) — lower, 81.2 °C
- *Oc1ccc(C2(c3ccc(OC(=O)c4ccc(C(*)=O)cc4)cc3)c3ccccc3C(=O)c3ccccc32)cc1 (repeat unit) — higher, 400.00 °C
- *Oc1cc(C(C)(C)c2ccccc2)c(OC(=O)c2ccc(C(*)=O)cc2)cc1C(C)(C)c1ccccc1 (repeat unit) — higher, 170.00 °C
- *Cc1ccc2oc(=O)c(C(=O)Nc3ccc(Oc4ccc(C(c5ccc(Oc6ccc(NC(=O)c7cc8cc(*)ccc8oc7=O)cc6)cc5)(C(F)(F)F)C(F)(F)F)cc4)cc3)cc2c1 (repeat unit) — higher, 283.00 °C
